{"source": "patent US20090186915A1", "about": "“Compositions and methods for treatment of glioblastoma, gliosarcoma, NSCLC, and head and neck cancer” (Unibioscreen S. A., priority 2006, published 2009)", "key": {"[1]": {"test_system": "ets homologous factor (EHF)", "assay": "EHF mRNA by quantitative RT-PCR, DU-145", "format": "cell-based, human", "method": "Reverse transcription reactions were carried out in a thermal cycler (Thermocycler; Westburg, Leusden, The Netherlands). The purification of the cDNAs produced was undertaken using the High Pure PCR Product Purification Kit (Roche Diagnostics, Mannheim, Germany) in accordance with the manufacturer's instructions. Quantitative PCR reactions were performed with 50 ng of purified cDNA in a LightCycler thermocycler instrument (Roche Diagnostics) using LCFastart DNA Master SYBR Green 1 (Roche Diagnostics). After amplification, data analysis was carried out by means of the “Fit points” algorithm of the LightCycler quantification software. A standard curve enabled cDNA quantification of samples to be effected. The primers used were provided by Invitrogen and selected using the HYBSIMULATOR software (Advanced Gene Computing Technology, Irvine, Calif.). The primers used were as follows: ets homologous factor (EHF): forward: 5′-[…]-3′; reverse: 5′-CGAACTCTTGGAAAGGGA-3′; E2F1: forward: 5′-[…]-3′; reverse: 5′-GGATGTGGTTCTTGGACTT-3′."}, "[2]": {"test_system": "glioma Hs683 and U373 cells", "assay": "Cell cycle kinetics by flow cytometry, glioma cells", "format": "cell-based, human", "method": "The cell cycle kinetics of glioma Hs683 (ATCC code HTB-138) and U373 (ATCC code HTB-17) cells left untreated or incubated with UNBS5162 as indicated were determined by flow cytometry analysis of propidium iodide (PI) nuclear staining, using previously detailed methodology (Mijatovic et al. Neoplasia 2006, 2008). Each sample was evaluated in triplicate. Flow cytometry was undertaken using an Epics XL.MCL flow cytometer and the F ACScan/CellQuest software system (Becton Dickinson, Miami, Fla., USA)."}, "[3]": {"test_system": "PC-3 Human Prostate Cancer Cells", "assay": "Affymetrix whole genome microarray, gene targets", "details": "mRNA", "quoted_text": "We performed a first experiment of evaluation of gene targets by means of Affymetrix whole genome microarray using human PC-3 cancer cells grown in vitro and treated with the compound of the invention (N-{2-[2-(dimethylamino)ethyl]-1,3-dioxo-2,3-dihydro-1H-benzo[de]isoquinolin-5-yl}urea) either one time at 1 μM or 10 μM, or 5 times a week (one time a day during five consecutive days) at 1 μM (Full genome analyses were performed at the VIB MicroArray Facility (UZ Gasthuisberg, Catholic University of Leuven, Belgium) using Affymetrix Human Genome U133 set Plus 2.0 (High Wycombe, United Kingdom).\nFull genome-wide analyses were performed at the VIB MicroArray Facility (UZ Gasthuisberg, Catholic University of Leuven, Leuven, Belgium) using the Affymetrix Human Genome U133 set Plus 2.0 (High Wycombe, UK).\nIn addition to R, an open-source software environment for statistical computing, a set of functions called BioConductor was used for the analysis and comprehension of the genomic data. The quality controls in the Affymetrix microarray experiments were performed with the Simpleaffy package and agreed with Affymetrix guidelines. The background correction, expression quantification and normalization were performed using Robust Multichip Analysis. To select differentially expressed genes between two experimental conditions, probes for which no overlap occurred between intervals in the expression values obtained for each condition were first identified. The fold change between two experimental conditions was computed for each of these probes (without any value overlap) as the ratio between the two nearest unlog expression values observed for the two different conditions (i.e., the ratio closest to 1 between any two values from the two different conditions). Probes for which these ratios were above 2.0 or below 0.50 were then selected. The annotations of the genes finally selected in this way were retrieved from the Affymetrix Web site through the BioConductor package ghgu133plus2.h. […] This software package was then used to rank functional clusters by means of the statistical overrepresentation of individual genes in specific categories relative to all the genes in the same category on the microarray."}, "DU-145": {"test_system": "DU-145", "assay": "Senescence-associated β-galactosidase staining, DU-145", "format": "cell-based, human", "details": "10 μM, 72 hours", "source_text": "Features typical of senescence have been induced by the compound of example 2 in human DU-145 prostate cancer cells. A senescent cell is known to typically show morphological changes, such as a flattened cytoplasm and increased granularity. The induction of senescence-associated β-galactosidase activity is a specific event occurring in cells undergoing senescence, a feature that was observed once more in the current study (according to the protocol found in Dimri et al., A biomarker that identifies senescent human cells in culture and in aging skin in vivo, Proc Natl Acad Sci USA. (1995) 92(20):9363-7), as evidenced in FIG. 4. Moderate doses (nM range) of doxorubicin (ADR) are known to induce senescence in wild-type human cancer cells. We therefore used doxorubicin as a positive control in our experiment.\nAfter the indicated treatments, cells were washed in PBS, fixed for 3 to 5 minutes (at room temperature) in 2% formaldehyde/0.2% glutaraldehyde, washed and incubated at 37° C. […] 1995; 92:9363-9367.], after fixing and staining with X-Gal, the number of cells positive for the SA-β-Gal activity (intense blue staining) was then counted independently by two different individuals (on 400 cells/plate). […]\nHuman PC-3 and DU-145 prostate cancer cells cultured in 0 or 10 μM UNBS5162 or 20 nM Adriamycin for 72 hours were evaluated by SA-β-Gal staining. […]"}, "[4]": {"test_system": "platelets, red and white blood cells", "assay": "Compound-induced hematotoxicity and tolerance in mice", "format": "in vivo", "details": "20 mg/kg intra-venous, three times a week for five weeks", "method": "We have determined the compound-induced potential hematotoxicity of the compound produced according to example 2 or example 7 on platelets, red and white blood cells in comparison of the effect of amonafide on platelets, red and white blood cells. The effect of amonafide was evaluated at 10 mg/kg and 20 mg/kg, by the intra-peritoneal administration to mice. The administration schedule was five times a week for three consecutive weeks. The effect of the compound produced according to example 2 or example 7 was evaluated at 20 mg/kg, by the intra-venous administration to mice. The administration schedule was three times a week (on Mondays, Wednesdays and Fridays) for five consecutive weeks. The animals were sacrificed 3 days after the last injection. There were 10 mice per group. FIG. 1 illustrates results of this assay for compound-induced hematotoxicity on platelets."}, "[5]": {"details": "1 μM once a day for five consecutive days"}}, "data": [{"smiles": "CN(C)CCN1C(=O)c2cccc3cc(NC(N)=O)cc(c23)C1=O", "note": "[UNBS5162, N-{2-[2-(dimethylamino)ethyl]-1,3-dioxo-2,3-dihydro-1H-benzo[de]isoquinolin-5-yl}urea]", "values": [{"measurement": "EHF mRNA expression", "setting": "[1]; 1 μM", "result": "markedly decreased EHF mRNA expression in a transient manner"}, {"measurement": "EHF mRNA levels", "setting": "[1]; 10 μM, 72 hours after treatment", "result": "marked sustained decrease in EHF mRNA levels"}, {"measurement": "cell cycle kinetics, G2 block", "setting": "[2]; Hs683 and U373, 10 μM for 72 h", "result": "markedly blocked both Hs683 and U373 cells in their G2 cell cycle phase"}, {"measurement": "cell cycle kinetics", "setting": "[2]; glioma cells, 1 μM", "result": "did not significantly modify glioma cell cycle kinetics"}, {"measurement": "cell cycle kinetics", "setting": "[2]; glioma cells, chronic 1 μM for five days", "result": "did not notably modify glioma cell cycle kinetics"}, {"measurement": "cell death on chronic treatment", "setting": "[2]; glioma cells, chronic 10 μM for five days", "result": "induced the death of all assayed cells before the end of experiment"}, {"measurement": "ALDH1A3 Expression Level: 5 × 1 μM", "setting": "[3]; [5]", "result": 3.7}, {"measurement": "ASNS Expression Level: 5 × 1 μM", "setting": "[3]; [5]", "result": 0.9}, {"measurement": "BCAT1 Expression Level: 5 × 1 μM", "setting": "[3]; [5]", "result": 0.8}, {"measurement": "CBS Expression Level: 5 × 1 μM", "setting": "[3]; [5]", "result": 1.0}, {"measurement": "CTH Expression Level: 5 × 1 μM", "setting": "[3]; [5]", "result": 0.9}, {"measurement": "H2BFS Expression Level: 5 × 1 μM", "setting": "[3]; [5]", "result": 0.5}, {"measurement": "HIST1H2AC Expression Level: 5 × 1 μM", "setting": "[3]; [5]", "result": 0.2}, {"measurement": "HIST1H2BC Expression Level: 5 × 1 μM", "setting": "[3]; [5]", "result": 0.7}, {"measurement": "HIST1H2BD Expression Level: 5 × 1 μM", "setting": "[3]; [5]", "result": 0.3}, {"measurement": "HIST1H2BG Expression Level: 5 × 1 μM", "setting": "[3]; [5]", "result": 0.5}, {"measurement": "HIST1H2BK Expression Level: 5 × 1 μM", "setting": "[3]; [5]", "result": 0.3}, {"measurement": "HIST1H3D Expression Level: 5 × 1 μM", "setting": "[3]; [5]", "result": 0.6}, {"measurement": "HIST1H3H Expression Level: 5 × 1 μM", "setting": "[3]; [5]", "result": 0.6}, {"measurement": "HIST2H2AA Expression Level: 5 × 1 μM", "setting": "[3]; [5]", "result": 0.5}, {"measurement": "HIST2H2BE Expression Level: 5 × 1 μM", "setting": "[3]; [5]", "result": 0.3}, {"measurement": "PHGDH Expression Level: 5 × 1 μM", "setting": "[3]; [5]", "result": 1.0}, {"measurement": "SARS Expression Level: 5 × 1 μM", "setting": "[3]; [5]", "result": 0.9}, {"measurement": "SAT Expression Level: 5 × 1 μM", "setting": "[3]; [5]", "result": 0.8}, {"measurement": "ALDH1A3 CT versus 1 μM", "setting": "[3]; one time at 1 μM", "result": 0.7}, {"measurement": "ASNS CT versus 1 μM", "setting": "[3]; one time at 1 μM", "result": 1.3}, {"measurement": "CBS CT versus 1 μM", "setting": "[3]; one time at 1 μM", "result": 1.0}, {"measurement": "CTH CT versus 1 μM", "setting": "[3]; one time at 1 μM", "result": 1.1}, {"measurement": "H2AFY CT versus 1 μM", "setting": "[3]; one time at 1 μM", "result": 1.7}, {"measurement": "HIST1H2AC CT versus 1 μM", "setting": "[3]; one time at 1 μM", "result": 1.0}, {"measurement": "HIST1H3D CT versus 1 μM", "setting": "[3]; one time at 1 μM", "result": 0.9}, {"measurement": "PHGDH CT versus 1 μM", "setting": "[3]; one time at 1 μM", "result": 1.4}, {"measurement": "SARS CT versus 1 μM", "setting": "[3]; one time at 1 μM", "result": 1.0}, {"measurement": "SAT CT versus 1 μM", "setting": "[3]; one time at 1 μM", "result": 1.1}, {"measurement": "ALDH1A3 Expression Level: 10 μM", "setting": "[3]; one time at 10 μM", "result": 2.3}, {"measurement": "ASNS Expression Level: 10 μM", "setting": "[3]; one time at 10 μM", "result": 3.6}, {"measurement": "BCAT1 Expression Level: 10 μM", "setting": "[3]; one time at 10 μM", "result": 2.1}, {"measurement": "CBS Expression Level: 10 μM", "setting": "[3]; one time at 10 μM", "result": 2.2}, {"measurement": "CTH Expression Level: 10 μM", "setting": "[3]; one time at 10 μM", "result": 2.0}, {"measurement": "H2AFY Expression Level: 10 μM", "setting": "[3]; one time at 10 μM", "result": 2.6}, {"measurement": "H2BFS Expression Level: 10 μM", "setting": "[3]; one time at 10 μM", "result": 0.5}, {"measurement": "HIST1H2AC Expression Level: 10 μM", "setting": "[3]; one time at 10 μM", "result": 0.4}, {"measurement": "HIST1H2BC Expression Level: 10 μM", "setting": "[3]; one time at 10 μM", "result": 0.4}, {"measurement": "HIST1H2BD Expression Level: 10 μM", "setting": "[3]; one time at 10 μM", "result": 0.3}, {"measurement": "HIST1H2BG Expression Level: 10 μM", "setting": "[3]; one time at 10 μM", "result": 0.4}, {"measurement": "HIST1H2BK Expression Level: 10 μM", "setting": "[3]; one time at 10 μM", "result": 0.5}, {"measurement": "HIST1H3D Expression Level: 10 μM", "setting": "[3]; one time at 10 μM", "result": 0.4}, {"measurement": "HIST1H3H Expression Level: 10 μM", "setting": "[3]; one time at 10 μM", "result": 0.3}, {"measurement": "HIST2H2AA Expression Level: 10 μM", "setting": "[3]; one time at 10 μM", "result": 0.4}, {"measurement": "HIST2H2BE Expression Level: 10 μM", "setting": "[3]; one time at 10 μM", "result": 0.5}, {"measurement": "PHGDH Expression Level: 10 μM", "setting": "[3]; one time at 10 μM", "result": 2.4}, {"measurement": "SARS Expression Level: 10 μM", "setting": "[3]; one time at 10 μM", "result": 2.6}, {"measurement": "SAT Expression Level: 10 μM", "setting": "[3]; one time at 10 μM", "result": 0.5}, {"measurement": "senescence-associated β-galactosidase expression", "setting": "DU-145", "result": "induced marked expression of SA-β-Gal"}, {"measurement": "senescence-associated β-galactosidase expression", "setting": "DU-145; listed as example 2", "result": "induced a similar percentage of senescence-associated β-galactosidase positive staining as 20 nM doxorubicin"}, {"measurement": "tolerance of chronic administrations", "setting": "[4]", "result": "tolerated 15 chronic administrations"}]}]}
